Results taken from US20110092591A1, “PHENYL-PRENYL DERIVATIVES, OF MARINE AND SYNTHETIC ORIGIN, FOR THE TREATMENT OF COGNITIVE, NEURODEGENERATIVE OR NEURONAL DISEASES OR DISORDERS” (NOSCIRA S.A., priority 2008, published 2011).

How the values were obtained:
Assay type in all cases: biochemical
[1] = biological target: T1, rhBACE-1 β-Secretase recombinant human (Homo sapiens, UniProt P56817); experiment: BACE assay (FRET, fluorogenic peptide substrate); details: for % BACE Activity: percentage of the enzyme activity (remaining)
T1 construct: purchased R&D Systems 931-AS
From the text: The aim of this assay is to determine if a compound, either synthetic or of marine origin, is a BACE-1 inhibitor, to avoid the formation of Aβ. This assay is based on FRET technology (Fluorescence Resonance Energy Transfer). FRET is used to measure cleavage of a peptide substrate, among other uses. […] When a substrate peptide cleavage occurs, the energy balance is broken and all the donor fluorescence can be observed. The increase in fluorescence is linearly related to the rate of proteolysis (Gordon, G W et al., 1998). In this assay the reaction occurs between an enzyme, purified BACE-1, and a fluorogenic peptidic substrate who present the “Swedish mutation”. The peptide cleavage by BACE-1 produces fluorescence energy and enzymatic activity can be quantified.
The reagents which are used in this assay are the following:
rhBACE-1 β-Secretase recombinant human (R&D Systems. Ref. 931-AS).
Fluorogenic Peptide Substrate IV (R&D Systems. Ref. ES004).
Beta-SECRETASE INHIBITOR H-4848. (BACHEM. Ref. H-4848.0001).
The assay is carried out in a 96 wells microplate. The final concentration of substrate is 3.5 μM per well, and the enzyme concentration is 0.5 μg/ml. The final volume of the assay is 100 μl per well and all reagents are diluted in Reaction Buffer.
The compounds are tested at a concentration of 10^−5 and 10^−6 M. The control in the assay is the commercial inhibitor β-Secretase inhibitor H-4848 from BACHEM, which is tested at 300 nM. All the samples and controls are studied by duplicate.
The plate is mixed gently and changes in the fluorescence are measured using a fluorimeter plate reader, with 320 nm excitation filter and 405 nm emission filter. The temperature should be preferably maintained between 25 and 30° C. Measurements are carried out every ten minutes during an hour. The first measure is subtracted from the last to calculate the fluorescence increase, evaluating the enzymatic activity. The 100% activity is calculated as the mean of the results of wells without sample or inhibitor.
In the cases where abnormal effects in fluorescence were detected, BACE inhibition activity was assayed using BACE-1 (beta-Secretase) FRET ASSAY KIT (Invitrogen, Ref. P2985). Fluorescence was measured with a fluorimeter plate reader, with 544 nm excitation filter and 580 nm emission filter.
Further information regarding this assay may be found in the following references, which are incorporated by reference into the present application: • Andrau, D et al; “BACE1- and BACE2-expressing human cells: characterization of beta-Amyloid precursor protein-derived catabolites, design of a novel fluorimetric assay, and identification of new in vitro inhibitors”. J Biol Chem. 2003 Jul. 11; 278(28):25859-66. • Gordon, G W et al; “Quantitative fluorescence resonance energy transfer measurements using fluorescence microscopy.” Biophys J. 1998 May; 74:2702-13.
The compounds of formula (I) of the present invention where submitted to the above indicated assay, in order to determine their BACE activity inhibition. The results are indicated in Table I, in percentage of the enzyme activity.

[2] = biological target: T2, Recombinant human glycogen synthase kinase 3 beta (Homo sapiens, UniProt P49841); experiment: GSK-3 beta inhibition assay (33P-ATP, GS-2 peptide)
[3] = biological target: T2, Recombinant human glycogen synthase kinase 3 beta; experiment: as above; details: 0.5 h, percentage of the enzyme activity (remaining), read-out: % Act. GSK-3 beta; for remaining activity at 25 µM: compound at 25 μM; for remaining activity at 50 µM: compound at 50 μM
Procedure: The GSK-3 beta activity of the compounds of formula (I) according to the present invention was determined by incubation of a mixture of recombinant human GSK-3 enzyme, a phosphate source and GSK-3 substrate in the presence and in the absence of the corresponding test compound, and by measuring the GSK-3 activity of this mixture. The compounds where tested at final concentrations of 25 and 50 μM.
Recombinant human glycogen synthase kinase 3 beta was assayed in MOPS 11 mM, pH 7.4, EDTA 0.2 mM, EGTA 1.25 mM, MgCl2 26.25 mM and sodium orthovanadate 0.25 mM in the presence of 62.5 μM of Phospho-Glycogen Synthase Peptide-2 (GS-2), 0.5 μCi gamma-^33P-ATP and unlabelled ATP at a final concentration of 12.5 μM. The final assay volume was 20 μl. After incubation for 30 minutes at 30° C., 15 μl aliquots were spotted onto P81 phosphocellulose papers. Filters were washed four times for at least 10 minutes each and counted with 1.5 ml of scintillation cocktail in a scintillation counter.
The compounds of formula (I) of the present invention where submitted to the above indicated assay, in order to determine their GSK-3 inhibition activity. The results are indicated in Table II, in percentage of the enzyme activity.

T2 sequence (P49841 whole entry): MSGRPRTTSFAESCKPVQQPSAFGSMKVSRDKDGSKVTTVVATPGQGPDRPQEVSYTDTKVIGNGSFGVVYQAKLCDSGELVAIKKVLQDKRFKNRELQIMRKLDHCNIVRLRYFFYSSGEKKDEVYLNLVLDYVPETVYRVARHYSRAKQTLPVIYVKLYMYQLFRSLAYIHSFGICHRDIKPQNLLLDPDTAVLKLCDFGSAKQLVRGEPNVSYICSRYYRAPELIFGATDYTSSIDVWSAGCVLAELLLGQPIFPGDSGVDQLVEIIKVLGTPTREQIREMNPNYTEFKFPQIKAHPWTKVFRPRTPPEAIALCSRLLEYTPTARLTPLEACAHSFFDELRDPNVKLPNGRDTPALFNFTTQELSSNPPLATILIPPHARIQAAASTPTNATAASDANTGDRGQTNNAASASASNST
T1 sequence (P56817 46-457 limits assumed): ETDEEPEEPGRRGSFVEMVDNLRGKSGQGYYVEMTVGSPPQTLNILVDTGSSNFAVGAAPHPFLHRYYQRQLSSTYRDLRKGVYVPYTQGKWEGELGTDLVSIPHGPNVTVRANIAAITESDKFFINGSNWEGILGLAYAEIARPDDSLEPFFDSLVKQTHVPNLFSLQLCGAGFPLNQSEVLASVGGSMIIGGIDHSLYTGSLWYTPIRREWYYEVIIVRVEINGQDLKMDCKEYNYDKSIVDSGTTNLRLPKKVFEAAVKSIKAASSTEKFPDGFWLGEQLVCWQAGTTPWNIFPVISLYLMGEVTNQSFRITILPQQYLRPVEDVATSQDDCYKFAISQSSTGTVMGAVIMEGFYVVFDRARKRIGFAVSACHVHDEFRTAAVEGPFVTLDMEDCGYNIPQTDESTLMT

| SMILES | % BACE Activity ([1]; compound at 1 μM) | % BACE Activity ([1]; compound at 10 μM) | IC50 [2] | remaining activity at 25 µM [3] | remaining activity at 50 µM [3] | IC50 [1] |
| --- | --- | --- | --- | --- | --- | --- |
| CC(C)=CCC/C(C)=C/CC/C(C)=C/Cc1cc(C(=O)O)ccc1O [Compound 15] | 100% | 5 ± 9% | 11 µM | 24.6% | 3.27% | – |
| CC(C)=CCC/C(C)=C/CC/C(C)=C/CC/C(C)=C/Cc1cc(C(=O)OCc2ccccc2)ccc1OCc1ccccc1 [Compound 17] | 100% | 100% | – | 71.9% | 52.1% | – |
| CCNC(=O)c1ccc(O)c(C/C=C(\C)CC/C=C(\C)CC/C=C(\C)CCC=C(C)C)c1 [Compound 18] | 100% | 100% | – | 32.8% | 13.3% | – |
| CC(=O)Oc1ccc(C(=O)O)cc1C/C=C(\C)CC/C=C(\C)CC/C=C(\C)CCC=C(C)C [Compound 19] | 87 ± 14.5% | 17.5 ± 0.7% | 2.77 µM | 10.7% | 4.58% | 20.5 ± 2.8 µM |
| COCOC(=O)c1ccc(OC(C)=O)c(C/C=C(\C)CC/C=C(\C)CC/C=C(\C)CCC=C(C)C)c1 [Compound 20, (2E,6E,10E)-4-Acetoxy-3-(3,7,11,15-tetramethyl-hexadeca-2,6,10,14-tetraenyl)-benzoic acid methoxymethyl ester] | 100% | 100% | – | 51% | 17.7% | – |
| COCOc1ccc(C(=O)O)cc1C/C=C(\C)CCC=C(C)C [Compound 21] | 88 ± 9% | 27 ± 3% | – | 100% | 79.9% | – |
| CC(C)=CCC/C(C)=C/CC/C(C)=C/Cc1cc(C=O)ccc1OCc1ccccc1 [Compound 23] | 99 ± 2% | 88 ± 13% | – | 2.22% | 2.01% | – |
| CC(C)=CCC/C(C)=C/CC/C(C)=C/CC/C(C)=C/Cc1cc(C(=O)OCc2ccccc2)ccc1O [Compound 24] | 100% | 100% | – | 49.7% | 22.8% | – |
| COCOC(=O)c1ccc(O)c(C/C=C(\C)CC/C=C(\C)CC/C=C(\C)CCC=C(C)C)c1 [Compound 25] | 100% | 100% | 22 µM | 9.18% | 4.5% | – |
| CC(C)=CCC/C(C)=C/CC/C(C)=C/Cc1cc(C(=O)O)ccc1OCc1ccccc1 [Compound 26] | 100% | 100% | – | 71.4% | 41% | – |
| CC(C)=CCC/C(C)=C/Cc1cc(C(=O)O)ccc1OCc1ccccc1 [Compound 27] | 34 ± 27% | 0 ± 0% | – | 85.1% | 65.8% | – |
| COCOc1ccc(C(=O)O)cc1C/C=C(\C)CC/C=C(\C)CCC=C(C)C [Compound 28] | 87 ± 10% | 33 ± 7% | 18 µM | 17.1% | 2.44% | – |
